Data as given in ChEMBL document CHEMBL6074700, “Furan- and Furopyrimidine-Based Derivatives: Synthesis, VEGFR-2 Inhibition, and In Vitro Cytotoxicity” (ACS Med Chem Lett, 2024).
The source made the active and inactive calls. No cut-off for these calls is given here.

Columns and labels:
[1] = target: Vascular endothelial growth factor receptor 2 (Homo sapiens, UniProt P35968); assay: Inhibition of VEGFR2 (unknown origin)
HepG2 = assay: Antiproliferative activity against human HepG2 cells incubated for 72 hrs; conditions: HepG2, 72 h
MCF7 = assay: Antiproliferative activity against human MCF7 cells incubated for 72 hrs; conditions: MCF7, 72 h
A549 = assay: Antiproliferative activity against human A549 cells incubated for 72 hrs; conditions: A549, 72 h
HT-29 [2] = assay: Antiproliferative activity against human HT-29 cells incubated for 72 hrs; conditions: HT-29, 72 h
PC-3 = assay: Antiproliferative activity against human PC-3 cells incubated for 72 hrs; conditions: PC-3, 72 h
WI-38 = assay: Antiproliferative activity against human WI-38 cells incubated for 72 hrs; conditions: WI-38, 72 h
HUVEC = assay: Cytotoxicity against HUVEC cells; conditions: Homo sapiens
HT-29 [3] = assay: Induction of cell cycle arrest in human HT-29 cells assessed as accumulation of cells at G2/M phase at IC50 measured after 24 hrs by flow cytometry; type: functional, cell-based
HT-29 [4] = assay: Induction of apoptosis in human HT-29 cells assessed as increase in total apoptotic cells measured after 24 hrs by flow cytometry; type: functional, cell-based

Vascular endothelial growth factor receptor 2, sequence (P35968 whole entry): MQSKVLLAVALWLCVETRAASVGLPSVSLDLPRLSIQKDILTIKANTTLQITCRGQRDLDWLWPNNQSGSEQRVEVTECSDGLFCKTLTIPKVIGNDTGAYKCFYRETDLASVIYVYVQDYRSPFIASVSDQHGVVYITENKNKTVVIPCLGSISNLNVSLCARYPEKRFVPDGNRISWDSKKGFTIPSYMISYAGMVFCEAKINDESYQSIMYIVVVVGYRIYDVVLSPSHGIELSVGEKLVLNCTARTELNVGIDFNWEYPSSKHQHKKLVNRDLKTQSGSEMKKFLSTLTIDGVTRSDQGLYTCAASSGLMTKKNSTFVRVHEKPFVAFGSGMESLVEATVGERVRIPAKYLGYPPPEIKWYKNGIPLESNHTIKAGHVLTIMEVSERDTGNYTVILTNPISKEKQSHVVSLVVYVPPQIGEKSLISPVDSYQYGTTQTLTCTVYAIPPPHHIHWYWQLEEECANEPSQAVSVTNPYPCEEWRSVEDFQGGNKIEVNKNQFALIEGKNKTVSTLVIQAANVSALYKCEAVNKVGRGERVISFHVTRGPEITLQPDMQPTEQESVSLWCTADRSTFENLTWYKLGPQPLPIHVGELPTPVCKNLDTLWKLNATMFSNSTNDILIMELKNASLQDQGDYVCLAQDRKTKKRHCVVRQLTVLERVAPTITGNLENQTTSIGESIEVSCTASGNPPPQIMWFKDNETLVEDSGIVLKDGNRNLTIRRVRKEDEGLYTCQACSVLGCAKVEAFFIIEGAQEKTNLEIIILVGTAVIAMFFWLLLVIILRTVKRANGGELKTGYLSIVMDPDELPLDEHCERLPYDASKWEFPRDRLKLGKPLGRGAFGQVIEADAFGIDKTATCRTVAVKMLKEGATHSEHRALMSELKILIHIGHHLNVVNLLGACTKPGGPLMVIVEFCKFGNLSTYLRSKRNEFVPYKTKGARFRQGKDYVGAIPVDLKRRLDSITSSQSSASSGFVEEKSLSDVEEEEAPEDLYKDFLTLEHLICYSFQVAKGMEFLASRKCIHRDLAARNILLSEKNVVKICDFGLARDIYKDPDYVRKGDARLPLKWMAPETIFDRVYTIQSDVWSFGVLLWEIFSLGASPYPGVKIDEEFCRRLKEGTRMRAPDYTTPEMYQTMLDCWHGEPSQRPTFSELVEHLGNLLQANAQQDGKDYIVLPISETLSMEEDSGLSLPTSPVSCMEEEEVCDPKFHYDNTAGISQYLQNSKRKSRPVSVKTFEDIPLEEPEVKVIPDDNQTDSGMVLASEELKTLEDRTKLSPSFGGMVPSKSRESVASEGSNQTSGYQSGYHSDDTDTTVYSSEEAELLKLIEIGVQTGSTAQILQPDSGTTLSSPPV

Cc1cccc(-c2nc3c4c(-c5ccccc5)c(-c5ccccc5)oc4ncn3n2)c1
IC50 [1]: 0.121 µM

N#Cc1c(N=CNc2ccc(Br)cc2)oc(-c2ccccc2)c1-c1ccccc1
IC50 (HepG2): 11.2 µM | IC50 (MCF7): 9.06 µM | IC50 (A549): 10.1 µM | IC50 (HT-29 [2]): 12.1 µM | IC50 (PC-3): 23.2 µM | IC50 (WI-38): 27.4 µM

Cc1ccc(-c2nc3c4c(-c5ccccc5)c(-c5ccccc5)oc4ncn3n2)cc1
IC50 [1]: 0.125 µM

COc1ccc(-c2nc3c4cc(-c5ccc(OC)cc5)oc4ncn3n2)cc1
IC50 (HUVEC): 22.6 µM

N#Cc1c(N=CNc2ccc(Cl)cc2)oc(-c2ccccc2)c1-c1ccccc1
IC50 (HepG2): 7.28 µM | IC50 (MCF7): 6.72 µM | IC50 (A549): 6.66 µM | IC50 (HT-29 [2]): 8.51 µM | IC50 (PC-3): 14.5 µM | IC50 (WI-38): 30 µM | Activity (HT-29 [3]): Active | Activity (HT-29 [4]): Active

O=C(Nc1ncnc2oc(-c3ccccc3)c(-c3ccccc3)c12)c1ccc([N+](=O)[O-])cc1
IC50 (HepG2): 13.1 µM | IC50 (MCF7): 11.4 µM | IC50 (A549): 14.5 µM | IC50 (HT-29 [2]): 21.4 µM | IC50 (PC-3): 22.1 µM | IC50 (WI-38): 26.5 µM

N=c1c2cc(-c3ccccc3)oc2ncn1/N=C/c1ccc(Br)cc1
IC50 (HUVEC): 61.2 µM
